# In US12097215B2, “Antibacterial composition and its use in treating bacterial infections” (Vector Vitale IP LLC, priority 2017, dated 2024):
# Like-named read-outs stand apart in the source and are kept apart here. Marks after values point to notes of the source that are not given here.
# What was measured:
# [1] = tested on: S. aureus ATCC 25923; experiment: MIC by serial dilutions in broth (visible growth); assay type: cell-based;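 further: broth tubes inoculated at about 5×10^5 CFU/ml, incubated 16-24 h at 35 °C in air, growth judged by transmitted light against an unexposed refrigerated inoculum tube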
# [2] = tested on: E. coli ATCC 25922; experiment: MIC by serial dilutions in broth (visible growth); assay type: cell-based;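 further: broth tubes inoculated to about 5×10^5 CFU/ml, incubated at 35 °C for 16-24 h, growth judged by transmitted light versus an untreated inoculum reference tube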
# Experimental: (§3) The minimum inhibitory concentration (MIC) and minimum bactericidal concentration (MBC) of the antibacterial composition enriched for the light isotope zinc ^64Zne was evaluated in the experiment. […] S. aureus ATCC 25923, E. coli ATCC 25922 and P. aeruginosa ATCC 27853 were used as test cultures.
# (§4) The studies were carried out using the method of serial dilutions in broth. To determine sensitivity of microorganisms to the antibacterial composition, 0.5 ml of broth was placed into each tube. The number of tubes was determined based on the desired number of dilutions and was increased by one for the “negative” control (no test composition). Series of two-fold serial dilutions of the test variants of the antibacterial composition were used and concentrations ranging from 450 mcg ^64Zne/ml to 0.000107 mcg ^64Zne/ml were obtained.
# (§5) Reference test strains of S. aureus ATCC 25923, E. coli ATCC 25922 and P. aeruginosa ATCC 27853 were incubated in Mueller-Hinton liquid broth at 37° C. for 24 hours. Standard bacterial suspension equivalent to 0.5 McFarland standard diluted 100-fold with the broth was used for the inoculation of the tubes after which the concentration of microorganism in it was approximately 10^6 CFU/ml.
# (§6) 0.5 ml of inoculum was added to each tube containing 0.5 ml of the appropriate dilution of a solution of the ^64Zn-enriched salt of interest. […] The final concentration of the microorganism in each tube was approximately 5×10^5 CFU/ml.
# (§7) The tubes were incubated at 35° C. in air for 16-20 or 20-24 hours (depending on the bacterial strain).
# (§8) To determine the presence of microorganism growth the test tubes with inoculum were viewed under transmitted light. Transmitted light was measured by spectrophotometry. The growth of culture in the presence of antibacterial compositions based on ^64Zne was compared with the reference test tube (“negative” control), containing the original inoculum and stored in the refrigerator. The MIC was determined as the lowest concentration of ^64Zne that inhibits visible growth of the microorganism. Both gram-positive (S. aureus) and gram-negative bacteria (P. aeruginosa, E. coli) were used in the experiments described below.
# (§9) That is, ^64Zne in the form of a salt was compared with a composition that contains zinc with a natural distribution of isotopes. […] Relevant samples containing salt of natural zinc with EDDA and natural zinc sulfate were used for the comparison.
# (§10) The following commercial antibacterial medications were used for the study: azithromycin and ceftriaxone and norfloxacin. The initial concentration of 3000 mcg/ml was used for the samples of all the above compounds. […] Serial dilutions of the above antibacterial compounds were also prepared in the same way as for the antibacterial composition of the invention. The same pathogenic strains of S. aureus ATCC 25923, E. coli ATCC 25922, P. aeruginosa ATCC 27853 were used for the study.
# [3] = tested on: E. coli ATCC 25922; experiment: MBC by plating tube contents on Mueller-Hinton medium; assay type: cell-based
# Experimental: (§1) To evaluate the bactericidal action of the antibacterial composition based on light isotope ^64Zne the minimum bactericidal concentration (MBC) was determined by plating out 0.1 ml of the contents of each tube containing the antibacterial composition on Mueller-Hinton medium. The incubation was at 37° C. for 24 h.
# (§2) The MBC of the test samples was determined as the lowest concentration at which there was no growth on Mueller-Hinton agar medium.
# [4] = tested on: P. aeruginosa ATCC 27853; experiment: as above; assay type: cell-based
# Experimental: as §1, §2
# [5] = tested on: S. aureus ATCC 25923; experiment: as above; assay type: cell-based
# Experimental: as §1, §2
# [6] = tested on: P. aeruginosa ATCC 27853; experiment: MIC by serial dilutions in broth (visible growth)
# Experimental: as §3, §4, §5, §6, §7, §8, §9, §10
# [7] = concentration of ^64Zne, Tables 1-5
# [8] = Table 7, ^64Zne vs natural zinc
# [9] = Table 8, ^64Zne vs natural zinc
compound,measurement,setting,value
O=C([O-])CC(O)(CC(=O)[O-])C(=O)[O-].O=C([O-])CC(O)(CC(=O)[O-])C(=O)[O-].[Zn+2].[Zn+2].[Zn+2] [^64Zne citrate],visible growth,[1]; ^64Zne 0.00011 mcg/ml,+
same,visible growth,[1]; ^64Zne 0.00022 mcg/ml,+
same,visible growth,[1]; ^64Zne 0.00043 mcg/ml,+
same,visible growth,[1]; ^64Zne 0.00086 mcg/ml,+
same,visible growth,[1]; ^64Zne 0.0017 mcg/ml,+
same,visible growth,[1]; ^64Zne 0.0034 mcg/ml,+
same,visible growth,[1]; ^64Zne 0.0069 mcg/ml,+
same,visible growth,[1]; ^64Zne 0.014 mcg/ml,+
same,visible growth,[1]; ^64Zne 0.027 mcg/ml,−
same,visible growth,[1]; ^64Zne 0.055 mcg/ml,−
same,visible growth,[1]; ^64Zne 0.11 mcg/ml,−
same,visible growth,[1]; ^64Zne 0.22 mcg/ml,−
same,visible growth,[1]; ^64Zne 0.44 mcg/ml,−
same,visible growth,[1]; ^64Zne 0.88 mcg/ml,−
same,visible growth,[1]; ^64Zne 1.76 mcg/ml,−
same,visible growth,[1]; ^64Zne 3.52 mcg/ml,−
same,visible growth,[1]; ^64Zne 7.03 mcg/ml,−
same,visible growth,[1]; ^64Zne 14.06 mcg/ml,−
same,visible growth,[1]; ^64Zne 28.13 mcg/ml,−
same,visible growth,[1]; ^64Zne 56.25 mcg/ml,−
same,visible growth,[1]; ^64Zne 112.5 mcg/ml,−
same,visible growth,[1]; ^64Zne 225 mcg/ml,−
same,MIC,[1]; [7],0.0275 µg/mL
same,visible growth,[2]; ^64Zne 0.00011 mcg/ml,+
same,visible growth,[2]; ^64Zne 0.00022 mcg/ml,+
same,visible growth,[2]; ^64Zne 0.00043 mcg/ml,+
same,visible growth,[2]; ^64Zne 0.00086 mcg/ml,+
same,visible growth,[2]; ^64Zne 0.0017 mcg/ml,+
same,visible growth,[2]; ^64Zne 0.0034 mcg/ml,+
same,visible growth,[2]; ^64Zne 0.0069 mcg/ml,+
same,visible growth,[2]; ^64Zne 0.014 mcg/ml,+
same,visible growth,[2]; ^64Zne 0.027 mcg/ml,−
same,visible growth,[2]; ^64Zne 0.055 mcg/ml,−
same,visible growth,[2]; ^64Zne 0.11 mcg/ml,−
same,visible growth,[2]; ^64Zne 0.22 mcg/ml,−
same,visible growth,[2]; ^64Zne 0.44 mcg/ml,−
same,visible growth,[2]; ^64Zne 0.88 mcg/ml,−
same,visible growth,[2]; ^64Zne 1.76 mcg/ml,−
same,visible growth,[2]; ^64Zne 3.52 mcg/ml,−
same,visible growth,[2]; ^64Zne 7.03 mcg/ml,−
same,visible growth,[2]; ^64Zne 14.06 mcg/ml,−
same,visible growth,[2]; ^64Zne 28.13 mcg/ml,−
same,visible growth,[2]; ^64Zne 56.25 mcg/ml,−
same,visible growth,[2]; ^64Zne 112.5 mcg/ml,−
same,visible growth,[2]; ^64Zne 225 mcg/ml,−
same,visible growth,[2]; ^64Zne 450 mcg/ml,−
same,MIC,[2]; [7],0.0275 µg/mL
same,MBC,[3]; Table 6,0.44* mcg ^64Zne/ml
same,bactericidal activity (in words),[4],satisfactory bactericidal activity
same,MBC,[4]; Table 6,112.5 mcg ^64Zne/ml
same,MBC,[5]; Table 6,0.028* mcg ^64Zne/ml
same,MIC,[6]; [7],14.062 µg/mL
O=S(=O)([O-])[O-].[64Zn+2] [^64Zne sulfate],visible growth,[1],− and +
same,MIC,[1]; [8],0.366 zinc/ml
same,visible growth,[1]; ^64Zne 0.00036 mcg/ml,+
same,visible growth,[1]; ^64Zne 0.00072 mcg/ml,+
same,visible growth,[1]; ^64Zne 0.0014 mcg/ml,+
same,visible growth,[1]; ^64Zne 0.0029 mcg/ml,+
same,visible growth,[1]; ^64Zne 0.011 mcg/ml,+
same,visible growth,[1]; ^64Zne 0.023 mcg/ml,+
same,visible growth,[1]; ^64Zne 0.046 mcg/ml,+
same,visible growth,[1]; ^64Zne 0.37 mcg/ml,−
same,visible growth,[1]; ^64Zne 1.46 mcg/ml,−
same,visible growth,[1]; ^64Zne 2.93 mcg/ml,−
same,visible growth,[1]; ^64Zne 5.86 mcg/ml,−
same,visible growth,[1]; ^64Zne 11.72 mcg/ml,−
same,visible growth,[1]; ^64Zne 23.44 mcg/ml,−
same,visible growth,[1]; ^64Zne 46.88 mcg/ml,−
same,visible growth,[1]; ^64Zne 93.75 mcg/ml,−
same,visible growth,[1]; ^64Zne 187.5 mcg/ml,−
same,visible growth,[1]; ^64Zne 375 mcg/ml,−
same,visible growth,[1]; ^64Zne 750 mcg/ml,−
same,MIC,[1]; [7],0.366 µg/mL
same,visible growth,[2],− and +
same,MIC,[2]; [8],0.0916 zinc/ml
same,visible growth,[2]; ^64Zne 0.00036 mcg/ml,+
same,visible growth,[2]; ^64Zne 0.00072 mcg/ml,+
same,visible growth,[2]; ^64Zne 0.0014 mcg/ml,+
same,visible growth,[2]; ^64Zne 0.0029 mcg/ml,+
same,visible growth,[2]; ^64Zne 0.011 mcg/ml,+
same,visible growth,[2]; ^64Zne 0.023 mcg/ml,+
same,visible growth,[2]; ^64Zne 0.046 mcg/ml,+
same,visible growth,[2]; ^64Zne 0.092 mcg/ml,−
same,visible growth,[2]; ^64Zne 0.37 mcg/ml,−
same,visible growth,[2]; ^64Zne 0.73 mcg/ml,−
same,visible growth,[2]; ^64Zne 1.46 mcg/ml,−
same,visible growth,[2]; ^64Zne 2.93 mcg/ml,−
same,visible growth,[2]; ^64Zne 5.86 mcg/ml,−
same,visible growth,[2]; ^64Zne 11.72 mcg/ml,−
same,visible growth,[2]; ^64Zne 23.44 mcg/ml,−
same,visible growth,[2]; ^64Zne 46.88 mcg/ml,−
same,visible growth,[2]; ^64Zne 93.75 mcg/ml,−
same,visible growth,[2]; ^64Zne 187.5 mcg/ml,−
same,visible growth,[2]; ^64Zne 375 mcg/ml,−
same,visible growth,[2]; ^64Zne 750 mcg/ml,−
same,visible growth,[2]; ^64Zne 1500 mcg/ml,−
same,MIC,[2]; [7],0.0916 µg/mL
same,MBC,[3]; Table 6,1.46* mcg ^64Zne/ml
same,MBC,[3]; [9],1.4648 mcg zinc/ml
same,bactericidal activity (in words),[4],satisfactory bactericidal activity
same,MBC,[4]; Table 6,375 mcg ^64Zne/ml
same,MBC,[4]; [9],375 mcg zinc/ml
same,MBC,[5]; Table 6,0.37* mcg ^64Zne/ml
same,MBC,[5]; [9],0.3662 mcg zinc/ml
same,MIC,[6]; [8],46.875 zinc/ml
same,MIC,[6]; [7],46.875 µg/mL
